{"source": "patent US20250171404A1", "about": "“PCNA INHIBITORS AND USES THEREOF” (CITY OF HOPE, priority 2022, published 2025)", "key": {"SK-N-AS": {"tested_on": "SK-N-AS", "experiment": "Cell growth IC50, screening of AOH1160 analogs", "assay_type": "cell-based", "conditions": "Homo sapiens, read-out: IC50 values", "description": "(§1) FIG. 29. IC50 data for select compounds. The indicated cell lines were seeded at 10^4 cells per well in a 96 well plate. After allowing to attach to the plate overnight, cells were treated with various concentrations of the indicated compounds in triplicates for 72 hrs. The cell growth was measured by an SRB assay. The cell abundances under each treatment condition relative to the baseline were averaged and graphed ±S.D. The baseline is defined as the median value of the cell abundances under the treatment by the two lowest compound concentrations. The IC50 was calculated by the Prism program."}, "SK-N-BE(2)c": {"tested_on": "SK-N-BE(2)c", "experiment": "Cell growth IC50, screening of AOH1160 analogs", "assay_type": "cell-based", "conditions": "Homo sapiens", "description": "as §1"}, "SK-N-DZ": {"tested_on": "SK-N-DZ", "experiment": "Cell growth IC50, screening of AOH1160 analogs", "assay_type": "cell-based", "conditions": "Homo sapiens", "description": "as §1"}, "[1]": {"conditions": "oral, 40 mg/kg, mice (Gu et al., 2018); cited from earlier work"}, "MDA-MB-468": {"tested_on": "MDA-MB-468", "experiment": "Cell growth IC50, screening of AOH1160 analogs", "assay_type": "cell-based", "conditions": "Homo sapiens, MDA-MB-468; read-out: IC50 values", "description": "as §1"}, "SK-MEL-28": {"tested_on": "SK-MEL-28", "experiment": "Cell growth IC50, screening of AOH1160 analogs", "assay_type": "cell-based", "conditions": "Homo sapiens", "description": "as §1"}, "Hela": {"tested_on": "Hela", "experiment": "Cell growth IC50, screening of AOH1160 analogs", "assay_type": "cell-based", "conditions": "Homo sapiens, HeLa; read-out: IC50 values", "description": "as §1"}, "SK-MEL-5": {"tested_on": "SK-MEL-5", "experiment": "Cell growth IC50, screening of AOH1160 analogs", "assay_type": "cell-based", "conditions": "Homo sapiens", "description": "as §1"}, "[2]": {"experiment": "Cell growth IC50, screening of AOH1160 analogs (cell line not given)", "assay_type": "cell-based", "description": "as §1"}, "SH-SY5Y": {"tested_on": "SH-SY5Y", "experiment": "Cell growth IC50, screening of AOH1160 analogs", "assay_type": "cell-based", "conditions": "Homo sapiens", "description": "as §1"}, "SK-N-FI": {"tested_on": "SK-N-FI", "experiment": "Cell growth IC50, screening of AOH1160 analogs", "assay_type": "cell-based", "conditions": "Homo sapiens", "description": "as §1"}, "OVCAR8": {"tested_on": "OVCAR8", "experiment": "Cell growth IC50, screening of AOH1160 analogs", "assay_type": "cell-based", "conditions": "Homo sapiens, OVCAR-8; OVCAR8; read-out: IC50 values", "description": "as §1"}, "MDA-MB-231": {"tested_on": "MDA-MB-231", "experiment": "Cell growth IC50, screening of AOH1160 analogs", "assay_type": "cell-based", "conditions": "Homo sapiens", "description": "as §1"}, "PCNA": {"target": "T1, PCNA (Homo sapiens, UniProt P12004)", "T1 construct": "made in house; host or cells: E. coli Rosetta 2 (DE3)", "T1 sequence (P12004 whole entry)": "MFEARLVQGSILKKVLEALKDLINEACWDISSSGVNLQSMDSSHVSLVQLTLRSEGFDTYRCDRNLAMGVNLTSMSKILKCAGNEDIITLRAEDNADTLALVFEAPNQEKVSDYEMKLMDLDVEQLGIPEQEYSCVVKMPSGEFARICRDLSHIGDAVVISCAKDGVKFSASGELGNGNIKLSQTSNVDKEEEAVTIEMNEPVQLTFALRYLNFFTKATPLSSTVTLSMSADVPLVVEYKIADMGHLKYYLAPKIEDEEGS", "experiment": "Thermal denaturation (thermal shift) assay", "assay_type": "binding", "conditions": "9 μM PCNA; 10 or 30 μM compound; dose dependent", "description": "FIGS. 1A-1E. AOH1160 analog interactions with PCNA. FIG. 1A: Thermal shift assay: Normalized inverse derivative thermal denaturation plots of 9 μM apo-PCNA with DMSO control is depicted with a black dashed line and PCNA in the presence of 10 μM AOH1160LE is shown in light grey and 30 μM AOH1160LE in dark grey. ΔTm values are provided. FIG. 1B: As described in FIG. 1A, in the presence of 10 μM AOH1996 depicted in light grey and 30 μM AOH1996 depicted in dark grey. FIG. 1C: Four monomers (chains A-D) of PCNA are present in the asymmetric unit of the crystal. Chains A, B, and C form the homotrimer biological unit, while chain Dis orientated perpendicular to the plane of the ring, below the interface of chains B and C and it belongs to an adjacent ring. Inset: Three molecules of AOH1160LE bind in and adjacent to the PIP box cavity of each of the PCNA ring subunits. The omit map, gray mesh, is contoured to 1.56. Two PCNA monomer subunits from adjacent rings stack against each other, placing the PIP box and IDCLs of each subunit in opposing directions. FIG. 1D: The three AOH1160LE molecules are shown as stick figure representations. Two of the compounds, left and central, bind into the PIP box cavity at known PCNA-partner/compound interaction sites. […] The electrostatic surface maps are depicted with Poisson-Boltzmann electrostatic surface potentials shown in dark grey and light grey, corresponding to −10 to +10 kT/e respectively.\nTargeting the PIP box and APIM binding domain of PCNA. AOH1160, a small molecule PCNA ligand, targets the cancer-distinct L126-Y133 region of PCNA (Malkas et al., 2006) and is selectively toxic to cancer cells (Gu et al., 2018). […]\nThermal denaturation assay for PCNA-AOH1996 interaction. […] Fluorescence intensity was measured within the excitation/emission ranges 470-505/540-700 nm."}, "[3]": {"experiment": "Solubility in aqueous buffer with 10% DMSO", "assay_type": "physicochemical", "conditions": "pH 7.4, aqueous with cosolvent or surfactant or cyclodextrin, read-out: soluble at concentration", "description": "AOH1160LE was soluble at a 4 mM concentration in aqueous buffer with 10% DMSO, which enabled co-crystallization studies on this analog. A PCNA:AOH1160LE co-crystal diffracted to 2.85 Å resolution at the synchrotron source, and phasing was provided by molecular replacement. Four PCNA subunits were present in the asymmetric unit, with three, chains A, B, C belonging to the homotrimeric ring structure, and the fourth, chain D (FIG. 1C) forms part of an adjacent ring in the unit cell that consists solely of D chains. Packing within the unit cell also places each monomer subunit of the PCNA ring against a subunit from another ring; these two stacked subunits interact via their PIP box binding pockets and […] IDCLs that are orientated in directly opposing directions (FIG. 1D). Clearly observed within the electron density maps are three molecules of AOH1160LE, which bind in and adjacent to the PIP box cavity of each of the PCNA ring subunits, and these compounds have further interactions with the PIP box pocket of the stacked PCNA subunit (FIG. 1D).\nExpression, purification and crystallization of PCNA. Human PCNA in a pET22b-hPCNA vector was transformed into E. coli Rosetta 2 (DE3) cells. PCNA expression was induced by 0.4 mM IPTG, OD600=0.6, and cells were grown for 5 hrs at 37° C. […]"}}, "note": "Where two headings read alike, the source gives them in different places.", "data": [{"smiles": "O=C(CNC(=O)c1cccc2ccccc12)Nc1ccccc1Oc1ccccc1", "note": "[AOH1160]", "values": [{"measurement": "IC50", "setting": "SK-N-AS", "result": 107, "unit": "nM"}, {"measurement": "IC50", "setting": "SK-N-BE(2)c", "result": 325, "unit": "nM"}, {"measurement": "IC50", "setting": "SK-N-DZ", "result": 237, "unit": "nM"}, {"measurement": "half-life", "setting": "[1]", "result": 3.4, "unit": "h"}]}, {"smiles": "O=C(CNC(=O)c1cccc2ccccc12)Nc1ccccc1Sc1ccccc1", "note": "[AOH1160S, N-(2-oxo-2-((2-(phenylthio)phenyl)amino)ethyl)-1-naphthamide]", "values": [{"measurement": "IC50", "setting": "MDA-MB-468", "result": 316, "unit": "nM"}, {"measurement": "IC50", "setting": "SK-MEL-28", "result": 340, "unit": "nM"}, {"measurement": "IC50", "setting": "Hela", "result": 290, "unit": "nM"}, {"measurement": "IC50", "setting": "SK-MEL-5", "result": 610, "unit": "nM"}]}, {"smiles": "C[C@H](NC(=O)c1cccc2ccccc12)C(=O)Nc1ccccc1Oc1ccccc1", "note": "[AOH1160LA, (S)—N-(1-oxo-1-((2-phenoxyphenyl)amino)propan-2-yl)-1-naphthamide]", "values": [{"measurement": "IC50", "setting": "[2]; FIG. 25, read-out: IC50", "result": "~3000", "unit": "nM"}, {"measurement": "IC50", "setting": "MDA-MB-468", "result": 4900, "unit": "nM"}, {"measurement": "IC50", "setting": "SH-SY5Y", "result": 4000, "unit": "nM"}, {"measurement": "IC50", "setting": "SK-N-FI", "result": 3000, "unit": "nM"}]}, {"smiles": "O=C(CNC(=O)c1cccc2ccccc12)Nc1ccccc1Sc1ccccc1F", "note": "[AOH1996S-2F, N-(2-((2-((2-fluorophenyl)thio)phenyl)amino)-2-oxoethyl)-1-naphthamide]", "values": [{"measurement": "IC50", "setting": "OVCAR8", "result": 410, "unit": "nM"}, {"measurement": "IC50", "setting": "MDA-MB-231", "result": 220, "unit": "nM"}]}, {"smiles": "O=C(O)CC[C@H](NC(=O)c1cccc2ccccc12)C(=O)Nc1ccccc1Oc1ccccc1", "note": "[AOH1160LE]", "values": [{"measurement": "IC50", "setting": "[2]; read-out: IC50 values", "result": "> 10000", "unit": "nM"}, {"measurement": "shift of protein melting curves (ΔTm)", "setting": "PCNA", "result": "≤ 0.5", "unit": "°C"}, {"measurement": "solubility", "setting": "[3]", "result": 4, "unit": "mM"}]}]}
